Legend:
[1] = molecular target: T1, Recombinant EphA4 kinase His6-TEV-EphA4 (aa. 615-911) (Homo sapiens, UniProt P54764); assay: EphA4 kinase enzymatic assay (TR-FRET); assay type: biochemical; details: for IC50: 25 μM ATP, TR-FRET; for inhibition at up to 100 µM: maximum percent inhibition, titration starting at 100 μM, read-out: EphA4 Kinase max inhibition in %
T1 construct: His6-TEV-EphA4 (36 KD) (aa. 615-911); His6 (N); TEV cleavage site (N); made in house; host or cells: Sf9 (baculovirus)
T1 sequence (P54764 615-911): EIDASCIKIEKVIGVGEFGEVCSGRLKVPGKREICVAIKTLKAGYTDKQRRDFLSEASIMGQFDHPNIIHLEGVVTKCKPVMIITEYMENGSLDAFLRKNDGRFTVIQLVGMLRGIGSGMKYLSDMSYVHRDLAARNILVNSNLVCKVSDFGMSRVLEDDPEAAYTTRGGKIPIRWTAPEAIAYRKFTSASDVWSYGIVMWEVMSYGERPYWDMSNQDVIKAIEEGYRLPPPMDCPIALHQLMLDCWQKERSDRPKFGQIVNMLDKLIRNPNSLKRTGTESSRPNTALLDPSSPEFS
Description: Recombinant EphA4 kinase His6-TEV-EphA4 (36 KD) (aa. 615-911) was expressed in Sf9 using baculovirus expression system. Hi-tagged protein was purified by high performance liquid chromatography in two step, using a His Trap HP column and a heparin column. The potency of compounds to inhibit EphA4 kinase phosphorylation was measured by an enzymatic assay based on time resolved fluorescence energy transfer assay format (TR-FRET), using Eu-W1024 anti-pTyr antibody (Perkin Elmer, USA) as a donor and SureLight APC (Perkin Elmer, USA) as an acceptor.
Biotinylated Poly(Glu Tyr) peptide (50 nM) was incubated in 384-well with 25 μM ATP (Sigma) and 10 ng EphA4 kinase in NEBuffer (New England Biolabs) for 60 minutes at rt. The reaction was stopped by 15 mM of EDTA solution for 10 minutes at rt. The detection mixture containing 0.5 nM Eu-W1024 anti-pTyr antibody (Perkin Elmer, USA) and 50 nM SureLight APC (Perkin Elmer, USA) was added to the wells and the plate was incubated for 30 min at rt, while protected from light. Energy transfer signal was measured using a Victor 2V (excitation filter 340, emission filter 615 and 665, delay time 50 μs). Results were expressed as ratios of the absorbencies 665/615.
(§1) Compounds were titrated in duplicate at 11 points concentration starting at 100 μM with a 3 fold increment. Compounds were diluted in DMSO. […] Percentage inhibition for each compound was then calculated based on the value of the 100% inhibition. Concentration-response curves were represented and the concentrations for 50% inhibition (IC50) were calculated.

[2] = test system: Primary Rat cortical astrocytes; assay: Proliferation assay (cell confluence), astrocytes; assay type: cell-based; details: at 5 μM
Description: C2Cl2 were plated at 15,000 cells per well and then differentiated into myotubes with DMEM supplemented with 2% horse serum for 3 days in 24 well ImageLock™ plate (Essen Instruments, MI, USA). Primary Rat cortical astrocytes were plated at 3.105 cells/ml onto 24 well ImageLock™ plate.
Cells were placed into the IncuCyte™ at 37° C. and 95% CO2/5% O2, for two to three days. During this time, the cells within each well were repeatedly imaged at fixed time intervals (every three hours). The IncuCyte™ system automatically monitored the proliferation using the percentage of confluence. Percent of confluence can be graphed over time to evaluate the characteristics of proliferation in the presence of pharmacological agents.
Compounds were tested at 5 μM in quadruplicate. The percentage of reduction of cell confluence was calculated from the AUCs in comparison with the AUCs of the control wells (1% DMSO).

[3] = molecular target: T2, P60c-src (Homo sapiens, UniProt P12931); assay: Src kinase counterscreen enzymatic assay (TR-FRET); assay type: biochemical; details: 0.5 μM ATP
T2 construct: purchased Upstate biotechnology, USA
T2 sequence (P12931 whole entry): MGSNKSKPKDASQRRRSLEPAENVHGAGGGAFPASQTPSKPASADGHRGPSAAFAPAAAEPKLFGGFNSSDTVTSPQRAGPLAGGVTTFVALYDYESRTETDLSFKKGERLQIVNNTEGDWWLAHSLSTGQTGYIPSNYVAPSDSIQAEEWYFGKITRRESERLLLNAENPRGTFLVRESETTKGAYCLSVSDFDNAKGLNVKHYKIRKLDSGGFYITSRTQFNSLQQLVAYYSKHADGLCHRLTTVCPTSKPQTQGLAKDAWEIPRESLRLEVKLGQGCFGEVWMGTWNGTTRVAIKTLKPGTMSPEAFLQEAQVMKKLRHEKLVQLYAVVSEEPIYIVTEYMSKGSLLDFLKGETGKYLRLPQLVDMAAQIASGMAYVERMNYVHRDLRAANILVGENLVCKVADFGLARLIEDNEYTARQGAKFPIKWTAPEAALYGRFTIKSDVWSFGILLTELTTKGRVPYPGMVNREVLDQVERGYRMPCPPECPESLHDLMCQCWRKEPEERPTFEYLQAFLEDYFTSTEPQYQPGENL
Description: (§2) Counterscreen assays were developed for the tyrosine kinases src kinase and Jak2 kinase, with a format essentially identical to the EphA4 kinase TR-FRET format. Jak2 (50 ng) (Cell Signaling, USA) was incubated with 0.5 μM of biotinylated FLT3 peptide (Cell Signaling, USA) in presence of 5 μM of ATP (Sigma). P60c-src (10 U/well) (Upstate biotechnology, USA) was incubated with biotinylated Poly(Glu Tyr) peptide (100 nM) in presence of 0.5 μM of ATP. The enzymatic reaction was stopped after 60 min by adding 15 mM EDTA. The detection reaction and energy transfer signal measurements were similar to those previously described. Results were expressed as ratios of the absorbencies 665/615.
as §1

[4] = molecular target: T3, Jak2 (Homo sapiens, UniProt O60674); assay: Jak2 kinase counterscreen enzymatic assay (TR-FRET); assay type: biochemical; details: 5 μM ATP
T3 construct: purchased Cell Signaling, USA
T3 sequence (O60674 whole entry, species assumed): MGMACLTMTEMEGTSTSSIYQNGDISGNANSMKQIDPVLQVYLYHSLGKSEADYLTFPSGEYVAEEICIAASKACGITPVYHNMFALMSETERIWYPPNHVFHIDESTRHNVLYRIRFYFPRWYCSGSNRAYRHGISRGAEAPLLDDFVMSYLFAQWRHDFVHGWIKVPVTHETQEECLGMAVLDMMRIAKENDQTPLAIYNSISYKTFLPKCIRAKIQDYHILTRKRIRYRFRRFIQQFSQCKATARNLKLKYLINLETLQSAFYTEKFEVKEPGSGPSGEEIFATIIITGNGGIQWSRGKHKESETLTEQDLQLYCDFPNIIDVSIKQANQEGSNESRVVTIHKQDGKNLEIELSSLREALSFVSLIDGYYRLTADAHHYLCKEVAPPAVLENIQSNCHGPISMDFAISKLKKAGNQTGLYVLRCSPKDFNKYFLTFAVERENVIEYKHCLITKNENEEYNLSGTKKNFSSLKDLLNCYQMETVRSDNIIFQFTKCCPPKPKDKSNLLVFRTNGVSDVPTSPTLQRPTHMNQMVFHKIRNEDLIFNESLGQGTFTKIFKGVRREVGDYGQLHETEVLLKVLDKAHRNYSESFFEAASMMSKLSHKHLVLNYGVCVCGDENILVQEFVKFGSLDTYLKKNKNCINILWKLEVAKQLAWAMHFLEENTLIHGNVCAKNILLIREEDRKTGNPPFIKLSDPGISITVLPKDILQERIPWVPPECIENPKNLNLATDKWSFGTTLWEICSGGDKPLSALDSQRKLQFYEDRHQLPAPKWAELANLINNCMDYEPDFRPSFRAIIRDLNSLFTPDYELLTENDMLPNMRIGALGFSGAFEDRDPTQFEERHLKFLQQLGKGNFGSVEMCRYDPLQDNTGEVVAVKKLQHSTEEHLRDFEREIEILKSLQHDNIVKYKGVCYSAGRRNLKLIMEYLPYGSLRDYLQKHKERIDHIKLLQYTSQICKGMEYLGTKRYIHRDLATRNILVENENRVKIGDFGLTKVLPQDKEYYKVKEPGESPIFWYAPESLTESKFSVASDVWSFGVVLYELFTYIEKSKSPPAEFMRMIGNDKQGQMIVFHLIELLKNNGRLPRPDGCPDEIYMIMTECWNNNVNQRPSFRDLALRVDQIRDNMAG
Description: as §2, §1

[5] = molecular target: T4, P38alpha kinase (Homo sapiens, UniProt Q16539); assay: P38 alpha kinase counterscreen assay (Caliper mobility shift); assay type: biochemical
T4 construct: purchased Dundee Library
T4 sequence (Q16539 whole entry): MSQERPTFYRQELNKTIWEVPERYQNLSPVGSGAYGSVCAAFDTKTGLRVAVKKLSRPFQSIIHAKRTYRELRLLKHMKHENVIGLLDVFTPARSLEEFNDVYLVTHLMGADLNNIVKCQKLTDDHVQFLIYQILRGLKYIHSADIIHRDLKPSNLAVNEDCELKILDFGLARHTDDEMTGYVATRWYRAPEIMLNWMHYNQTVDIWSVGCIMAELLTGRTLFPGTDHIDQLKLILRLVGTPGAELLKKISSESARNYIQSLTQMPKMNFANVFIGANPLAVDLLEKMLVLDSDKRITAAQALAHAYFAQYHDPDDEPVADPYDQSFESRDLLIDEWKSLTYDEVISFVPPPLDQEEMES
Description: A counterscreen assay was performed to measure p38alpha kinase activity using the Caliper System (LifeSciences, USA). This system is based on the microfluidic technology. P38 alpha kinase activity was measured by the shift in mobility of the non-phosphorylated form when separated by electrophoresis and detected via LED (Light Emitting Diode) induced fluorescence. This assay was automated following the manufacturer's protocol. P38alpha kinase and its substrate GST-MK2 were bought from Dundee Library.
Compounds were titrated, concentration-response curves were represented and the concentrations for 50% inhibition (IC50) were calculated.

Structure (SMILES)	IC50 [1] [nM]	inhibition at up to 100 µM [1] [%]	% Reduction of Confluence Astrocytes [2] [% at 5 μM]	IC50 [3] [nM]	IC50 [4] [nM]	IC50 [5] [nM]
CC1CCc2c(-c3ccccc3Cl)nc3[nH]nc(N)c3c2C1 (stereo not drawn) [Example 63]	2100	99	14.8	8300	> 100000	7300
Cc1ccccc1-c1nc2[nH]nc(N)c2c2c1CCC(C)(C)C2 [Example 67]	1500	100	29.1	300	1000	3700
